Series [1] is described as follows: in vitro. Particulars: PAMPA, pH 5.
Description: Permeability of compound at pH 5 by PAMPA assay
Series [2] in a line: in vivo. Particulars: ICR, mouse, iv, 0.1 mg/kg.
Description: Half life in ICR mouse at 0.1 mg/kg, iv
Series [3] in a line: in vivo. Particulars: ICR, mouse, po, 1 mg/kg.
The nature of series [4]: in vitro. Particulars: mouse, liver microsomes. (In general: Liver microsomes are vesicles of endoplasmic reticulum, rich in cytochrome P450 enzymes.)
Description: Metabolic stability in mouse Liver microsomes
Series [5] is described as follows: in vivo. The conditions noted are these: ICR, mouse, iv, 0.1 mg/kg. This is another data set of the same source.
Description: Clearance in ICR mouse at 0.1 mg/kg, iv
A short description of series [6]: in vivo. The conditions noted are these: ICR, mouse, iv, 0.1 mg/kg. This is another data set of the same source.
Description: Volume of distribution at steady state in ICR mouse at 0.1 mg/kg, iv
Series [7] is described as follows: in vitro. Particulars: human, liver microsomes.
Description: Metabolic stability in human Liver microsomes
Series [8] can be described thus: in vitro. The conditions noted are these: PAMPA, pH 7.4.
Description: Permeability of compound at pH 7.4 by PAMPA assay
A short description of series [9]: in vivo. The conditions noted are these: ICR, mouse, po, 1 mg/kg. This is another data set of the same source.
Description: MRT in ICR mouse at 1 mg/kg, po
Series [10] can be described thus: in vivo. Particulars: ICR, mouse, po, 1 mg/kg. The source holds these as a separate data set.
The target in series [11] is Acetyl-CoA carboxylase 1 (Mus musculus, UniProt Q5SWU9). The series can be described thus: biochemical.
Description: Inhibition of mouse His-tagged ACC1 expressed in baculovirus infected SF9 cells using acetyl-CoA as substrate incubated for 60 mins followed by substrate addition and measured after 30 mins Rapidfire-Mass spectrometry
Series [12] can be described thus: in vivo. The conditions noted are these: ICR, mouse, iv, 0.1 mg/kg. The source holds these as a separate data set.
The target of series [13] is Acetyl-CoA carboxylase 2 (Mus musculus, UniProt E9Q4Z2). The series can be described thus: biochemical.
Acetyl-CoA carboxylase 2 (Mus musculus, UniProt E9Q4Z2), sequence (E9Q4Z2 whole entry): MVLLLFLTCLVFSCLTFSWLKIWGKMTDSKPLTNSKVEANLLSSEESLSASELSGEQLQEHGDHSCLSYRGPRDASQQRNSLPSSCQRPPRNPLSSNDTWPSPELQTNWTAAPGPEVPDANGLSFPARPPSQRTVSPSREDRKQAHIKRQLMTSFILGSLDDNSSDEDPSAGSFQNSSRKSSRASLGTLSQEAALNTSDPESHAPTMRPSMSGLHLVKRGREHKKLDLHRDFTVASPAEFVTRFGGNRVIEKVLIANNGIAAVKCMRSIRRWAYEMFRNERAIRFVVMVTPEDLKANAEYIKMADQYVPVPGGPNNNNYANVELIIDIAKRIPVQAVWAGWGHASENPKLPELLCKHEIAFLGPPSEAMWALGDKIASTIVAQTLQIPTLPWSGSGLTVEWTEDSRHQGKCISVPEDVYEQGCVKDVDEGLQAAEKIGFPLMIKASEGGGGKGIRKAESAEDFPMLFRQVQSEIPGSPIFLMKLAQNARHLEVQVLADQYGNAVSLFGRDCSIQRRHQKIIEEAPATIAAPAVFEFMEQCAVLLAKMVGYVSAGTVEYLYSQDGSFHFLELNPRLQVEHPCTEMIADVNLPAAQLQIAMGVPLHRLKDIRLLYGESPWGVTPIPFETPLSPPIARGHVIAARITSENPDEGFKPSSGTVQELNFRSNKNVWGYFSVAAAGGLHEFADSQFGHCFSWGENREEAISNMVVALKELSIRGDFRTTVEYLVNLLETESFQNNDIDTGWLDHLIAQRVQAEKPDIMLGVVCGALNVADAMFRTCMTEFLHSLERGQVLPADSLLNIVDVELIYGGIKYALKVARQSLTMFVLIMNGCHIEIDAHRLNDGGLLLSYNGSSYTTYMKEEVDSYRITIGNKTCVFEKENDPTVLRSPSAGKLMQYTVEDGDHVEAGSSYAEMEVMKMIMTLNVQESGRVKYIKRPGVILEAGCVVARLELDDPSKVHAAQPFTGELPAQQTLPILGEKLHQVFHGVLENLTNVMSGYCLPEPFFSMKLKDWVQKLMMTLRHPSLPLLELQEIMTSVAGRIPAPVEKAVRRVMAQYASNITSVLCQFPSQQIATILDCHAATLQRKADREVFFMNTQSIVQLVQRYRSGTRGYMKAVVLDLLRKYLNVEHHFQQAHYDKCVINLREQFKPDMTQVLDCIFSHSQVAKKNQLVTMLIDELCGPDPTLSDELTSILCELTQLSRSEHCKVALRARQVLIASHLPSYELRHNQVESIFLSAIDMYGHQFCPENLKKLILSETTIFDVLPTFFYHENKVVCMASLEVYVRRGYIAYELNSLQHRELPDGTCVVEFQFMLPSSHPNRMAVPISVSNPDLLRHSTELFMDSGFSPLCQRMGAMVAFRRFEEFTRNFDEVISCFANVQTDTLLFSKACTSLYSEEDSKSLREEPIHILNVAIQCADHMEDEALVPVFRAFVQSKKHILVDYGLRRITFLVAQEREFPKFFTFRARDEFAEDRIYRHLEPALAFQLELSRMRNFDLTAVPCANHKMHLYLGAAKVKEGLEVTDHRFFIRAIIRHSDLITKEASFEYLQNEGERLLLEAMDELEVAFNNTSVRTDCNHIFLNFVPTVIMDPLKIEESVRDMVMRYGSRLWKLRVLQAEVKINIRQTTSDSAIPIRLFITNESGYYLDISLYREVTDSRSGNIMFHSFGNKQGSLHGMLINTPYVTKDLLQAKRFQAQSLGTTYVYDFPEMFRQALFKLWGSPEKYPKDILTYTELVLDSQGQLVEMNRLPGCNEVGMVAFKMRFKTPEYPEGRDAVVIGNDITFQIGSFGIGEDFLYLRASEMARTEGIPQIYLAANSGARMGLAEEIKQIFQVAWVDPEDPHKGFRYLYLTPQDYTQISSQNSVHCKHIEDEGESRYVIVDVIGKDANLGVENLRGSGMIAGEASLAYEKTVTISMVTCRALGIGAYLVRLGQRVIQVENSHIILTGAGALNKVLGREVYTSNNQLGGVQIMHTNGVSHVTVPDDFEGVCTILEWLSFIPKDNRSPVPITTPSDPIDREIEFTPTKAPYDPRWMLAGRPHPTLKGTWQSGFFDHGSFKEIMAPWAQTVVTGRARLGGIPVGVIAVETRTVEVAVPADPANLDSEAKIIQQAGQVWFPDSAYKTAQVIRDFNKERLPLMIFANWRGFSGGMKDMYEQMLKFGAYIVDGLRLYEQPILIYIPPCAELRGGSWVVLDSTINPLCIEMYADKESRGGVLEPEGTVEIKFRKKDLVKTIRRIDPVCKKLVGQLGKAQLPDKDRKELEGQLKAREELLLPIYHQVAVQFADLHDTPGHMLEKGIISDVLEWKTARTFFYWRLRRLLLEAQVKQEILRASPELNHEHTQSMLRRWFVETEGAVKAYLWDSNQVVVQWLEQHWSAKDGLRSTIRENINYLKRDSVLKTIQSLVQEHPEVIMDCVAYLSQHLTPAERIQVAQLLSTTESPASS
Description: Inhibition of mouse His-tagged ACC2 expressed in baculovirus infected SF9 cells using acetyl-CoA as substrate incubated for 60 mins followed by substrate addition and measured after 30 mins Rapidfire-Mass spectrometry
The target in series [14] is Acetyl-CoA carboxylase 2 (Homo sapiens, UniProt O00763). Briefly: biochemical.
Acetyl-CoA carboxylase 2 (Homo sapiens, UniProt O00763), sequence (O00763 whole entry): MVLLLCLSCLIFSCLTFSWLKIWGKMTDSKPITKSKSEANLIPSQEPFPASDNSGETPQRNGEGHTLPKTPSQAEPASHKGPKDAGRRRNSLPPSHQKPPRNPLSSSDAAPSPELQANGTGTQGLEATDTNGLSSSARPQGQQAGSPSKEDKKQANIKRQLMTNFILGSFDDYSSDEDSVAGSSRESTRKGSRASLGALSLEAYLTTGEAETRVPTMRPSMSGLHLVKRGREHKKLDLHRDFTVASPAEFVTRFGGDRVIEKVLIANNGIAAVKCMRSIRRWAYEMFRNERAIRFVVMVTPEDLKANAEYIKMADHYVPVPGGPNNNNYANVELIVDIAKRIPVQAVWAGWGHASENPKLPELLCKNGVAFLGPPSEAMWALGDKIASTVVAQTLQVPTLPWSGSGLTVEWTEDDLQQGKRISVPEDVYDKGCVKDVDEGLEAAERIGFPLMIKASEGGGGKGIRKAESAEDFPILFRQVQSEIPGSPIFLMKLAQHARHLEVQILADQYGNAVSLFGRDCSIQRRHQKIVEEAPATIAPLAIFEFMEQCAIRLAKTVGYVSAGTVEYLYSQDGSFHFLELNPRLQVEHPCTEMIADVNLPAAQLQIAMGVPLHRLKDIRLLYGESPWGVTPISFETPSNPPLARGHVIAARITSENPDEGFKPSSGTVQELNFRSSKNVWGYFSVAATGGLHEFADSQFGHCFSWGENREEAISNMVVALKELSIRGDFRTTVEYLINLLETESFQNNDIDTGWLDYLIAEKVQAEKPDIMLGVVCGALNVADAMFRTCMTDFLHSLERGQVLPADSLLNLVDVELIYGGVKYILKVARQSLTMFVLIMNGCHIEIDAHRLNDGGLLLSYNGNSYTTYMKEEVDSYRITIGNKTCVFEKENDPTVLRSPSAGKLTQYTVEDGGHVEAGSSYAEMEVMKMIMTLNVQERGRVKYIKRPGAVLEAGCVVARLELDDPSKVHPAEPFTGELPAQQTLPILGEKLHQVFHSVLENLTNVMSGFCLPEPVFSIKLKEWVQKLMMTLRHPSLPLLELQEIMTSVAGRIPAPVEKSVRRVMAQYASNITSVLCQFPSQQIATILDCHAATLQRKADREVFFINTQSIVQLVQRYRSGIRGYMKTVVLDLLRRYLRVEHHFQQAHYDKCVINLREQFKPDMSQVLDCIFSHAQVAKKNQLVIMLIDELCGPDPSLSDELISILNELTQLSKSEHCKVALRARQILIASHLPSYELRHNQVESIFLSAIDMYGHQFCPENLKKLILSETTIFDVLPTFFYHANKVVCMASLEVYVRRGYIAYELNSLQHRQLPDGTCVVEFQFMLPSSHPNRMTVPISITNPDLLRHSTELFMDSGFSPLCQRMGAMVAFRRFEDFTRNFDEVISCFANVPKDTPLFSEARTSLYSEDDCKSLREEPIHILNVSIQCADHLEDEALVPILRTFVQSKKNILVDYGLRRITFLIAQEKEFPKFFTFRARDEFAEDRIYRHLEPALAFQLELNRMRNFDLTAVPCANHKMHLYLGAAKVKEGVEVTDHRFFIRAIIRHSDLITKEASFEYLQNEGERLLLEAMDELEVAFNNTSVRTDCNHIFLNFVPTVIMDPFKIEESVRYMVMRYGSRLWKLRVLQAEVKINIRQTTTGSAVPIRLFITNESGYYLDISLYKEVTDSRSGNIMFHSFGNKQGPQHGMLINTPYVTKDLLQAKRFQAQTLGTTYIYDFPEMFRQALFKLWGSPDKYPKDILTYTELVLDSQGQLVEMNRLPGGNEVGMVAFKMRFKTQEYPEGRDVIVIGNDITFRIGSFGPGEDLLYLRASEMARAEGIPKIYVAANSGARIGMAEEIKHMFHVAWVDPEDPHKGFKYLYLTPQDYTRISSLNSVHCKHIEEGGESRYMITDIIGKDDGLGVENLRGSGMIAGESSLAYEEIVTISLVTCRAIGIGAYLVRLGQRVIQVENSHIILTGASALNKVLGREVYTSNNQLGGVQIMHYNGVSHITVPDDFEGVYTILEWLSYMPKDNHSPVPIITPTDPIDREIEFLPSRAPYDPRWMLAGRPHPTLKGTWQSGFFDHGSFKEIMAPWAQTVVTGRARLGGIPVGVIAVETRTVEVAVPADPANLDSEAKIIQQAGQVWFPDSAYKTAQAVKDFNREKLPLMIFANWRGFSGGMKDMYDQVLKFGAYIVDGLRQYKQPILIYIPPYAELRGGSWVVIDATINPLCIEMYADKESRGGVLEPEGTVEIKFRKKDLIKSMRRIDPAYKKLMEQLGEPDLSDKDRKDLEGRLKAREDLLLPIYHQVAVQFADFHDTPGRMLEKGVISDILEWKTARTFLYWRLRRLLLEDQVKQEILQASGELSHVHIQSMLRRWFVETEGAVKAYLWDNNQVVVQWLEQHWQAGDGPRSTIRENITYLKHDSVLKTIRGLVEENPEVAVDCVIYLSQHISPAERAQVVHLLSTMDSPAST
Description: Inhibition of recombinant human His-tagged ACC2 expressed in baculovirus infected SF9 cells using acetyl-CoA as substrate incubated for 60 mins followed by substrate addition and measured after 30 mins Rapidfire-Mass spectrometry
Series [15] has as its target Acetyl-CoA carboxylase 1 (Homo sapiens, UniProt Q13085). Briefly: biochemical.
Description: Inhibition of recombinant human His-tagged ACC1 expressed in baculovirus infected SF9 cells using acetyl-CoA as substrate incubated for 60 mins followed by substrate addition and measured after 30 mins Rapidfire-Mass spectrometry

Each structure is given as a SMILES string. A value given as a limit tells only on which side of the number the result lay.

The term Papp denotes the rate of passage across a membrane or cell layer, normalised by area and donor concentration. Lower therefore signals slow passage. In general, half-life refers to the time needed for the level to fall by half in the phase considered. A low value points to rapid decline. One may read the AUC(0-t) as the area under the concentration-time curve up to a stated or last time point. Low readings indicate low exposure, high ones high exposure. A word on the microsomal CLint: it is the rate of metabolic loss divided by the concentration. High values mean faster metabolism, low ones greater metabolic stability. The term clearance denotes the rate of elimination divided by the concentration. Low readings indicate a low capacity for elimination, high ones a high capacity for elimination. One may read the Vd as the apparent volume that relates the amount in the body to the concentration in plasma or blood. In general, MRT refers to a mean duration of stay, worked out from the concentration-time curve. The bioavailability is dose-corrected exposure relative to a reference, in per cent. Higher therefore signals good availability. A word on the IC50: it is the concentration needed to halve the response being measured. Read a low IC50 as greater potency. As a reminder, the Cmax is the peak of the concentration-time curve. Turning to `CC(=O)NC(C)c1ccc2nc(-c3ccc(Oc4cccc(OCC5CC5)c4)nc3)oc2c1` (configuration not stated), the Papp in “in vitro [1]” is 27.2 ×10⁻⁶ cm/s; in “in vitro [8]”, 33.7 ×10⁻⁶ cm/s. In the series “in vivo [2]”, this compound yielded a half-life of more than 8 h. In addition, the AUC(0-t) at 8 h in the series “in vivo [3]” is 6880 ng·h/mL. Moreover, the microsomal CLint worked out at 65 µL/min/mg in the series “in vitro [4]” and 27 µL/min/mg in the series “in vitro [7]”. This compound also had a clearance in “in vivo [5]” of 1.47 mL/min/kg. The same compound registered a Vd in the series “in vivo [6]” of 0.269 L/kg. The MRT in “in vivo [9]” worked out at 3.69 h. Moreover, the bioavailability in the series “in vivo [10]” stood at 60.6%. Besides, the IC50 against Acetyl-CoA carboxylase 1 [11] turned out to be 0.18 nM; against Acetyl-CoA carboxylase 2 [13], 36 nM. Further, the Cmax in “in vivo [12]” was 1110 ng/mL.

For the compound `CC(NC(=O)N(C)C)c1ccc2nc(-c3ccc(Oc4cccc(OCC5CC5)c4)nc3)oc2c1` (configuration not stated), the IC50 on Acetyl-CoA carboxylase 2 [14] stood at 80 nM; at Acetyl-CoA carboxylase 1 [15] it was 2.1 nM.

Turning to `CNC(=O)NC(C)c1ccc2nc(-c3ccc(Oc4cccc(OCC5CC5)c4)nc3)oc2c1` (configuration not stated), the IC50 against Acetyl-CoA carboxylase 2 [14] is 77 nM; against Acetyl-CoA carboxylase 1 [15], 3.8 nM.

(Values after ChEMBL document CHEMBL4406889, “The identification and pharmacological evaluation of potent, selective and orally available ACC1 inhibitor” (Bioorg Med Chem Lett, 2019).)
